We go through 12 molecules from patent publication US12281116B2, “HTT modulators for treating Huntington's disease” (CHDI Foundation, Inc., priority 2021, dated 2025).

In this experiment the test system is tHTT (total HTT protein). As to the kind of experiment: Time-resolved FRET (HTRF) assay: Q48-Huntingtin and total-Huntingtin detection in GEN020 hESC lysates. In kind it is cell-based. Particulars: tHTT activity; human embryonic stem cells GEN020 (mutant 48 Q repeat allele); test compounds 48 hours; read-out: HTT Lowering Activity (HTRF). The protocol:
Time-resolved FRET assay: Q48-Huntingtin and total-Huntington detection Detection of endogenous HTT protein in cell lysates was performed using a protocol adapted from Weiss et al. See Weiss A et al. (2009). Single-step detection of mutant huntingtin in animal and human tissues: a bioassay for Huntington's disease. Anal. Biochem. 395(1): 8-15.
The multiplex assay was performed in human embryonic stem cells (GEN020 hESCs with mutant 48 Q repeat allele) which have been derived by Genea Biocells from human blastocysts of HD donors. Bradley C K et al. (2011). Derivation of Huntington's disease-affected human embryonic stem cell lines, Stem Cells Dev. 2011 March; 20(3):495-502. Cells were plated into 384-well collagen coated plates (10,000 cells per well) and left to adhere for 24 hours, test compounds were then added for 48 hours (37° C., 5% CO2), cells were then lysed, and the lysate was transferred to a black 384-well assay plate.
The assay plate included a combination of HTRF labelled monoclonal antibodies added to recognize discreet areas of the HTT protein, the Tb “donor” antibody (2B7-Tb: 0.2 ng/well) recognizes a sequence at the N-terminus of the protein, an Alexa488 “acceptor 1” antibody (MW1-Alexa488: 30 ng/well) recognizes an area in the polyQ region, whereas a d2 “acceptor 2” antibody (MAB2166-d2: 6 ng/well) recognizes a sequence beyond the polyQ region. These detection reagents were incubated with the cell lysate at room temperature for 4-6 hours before having their fluorescence quantified at 615 nm (donor) and 535 nm and 665 nm (acceptor 1 and 2 respectively). The donor/acceptor ratio between these signals indicated the relative quantities of mHTT and tHTT.
Results for various compounds described herein are provided in the Tables below. tHTT activity in this assay is categorized as 10-20 μM (−); 1-10 μM (+); 0.5-1 μM (++); 0.1-0.5 μM (+++); <0.1 μM (++++).
For orientation: Time-resolved FRET reads energy transfer from a long-lived donor to a nearby acceptor.
In the case of `CNC1C2CN(c3cnc(C(=O)Nc4cc(F)c5nc(C)cn5c4)cn3)CC21` (stereo not drawn) [Example 29, N-(8-Fluoro-2-methyl-imidazo[1,2-a]pyridin-6-yl)-5-[6-(methylamino)-3-azabicyclo[3.1.0]hexan-3-yl]pyrazine-2-carboxamide], the IC50 was below 100 nM.

Take `COc1cc2nn(C)cc2cc1NC(=O)c1cnc(N2CC3C(N)C3C2)cn1` (stereo not drawn) [Example 30, 5-(6-Amino-3-azabicyclo[3.1.0]hexan-3-yl)-N-(6-methoxy-2-methyl-indazol-5-yl)pyrazine-2-carboxamide]: the IC50 was below 100 nM.

Consider `Cc1cn2cc(NC(=O)c3cnc(N4CC[C@H](CNC5CC5)C4)cn3)c(F)c(C)c2n1` [Example 31, 5-[(3R)-3-[(cyclopropylamino)methyl]pyrrolidin-1-yl]-N-(7-fluoro-2,8-dimethyl-imidazo[1,2-a]pyridin-6-yl)pyrazine-2-carboxamide], for which the IC50 was below 100 nM.

As to `Cc1cn2cc(NC(=O)c3cnc(N4CC5C(C4)C5N4CCCC4)cn3)cc(F)c2n1` (stereo not drawn) [Example 32, N-(8-Fluoro-2-methyl-imidazo[1,2-a]pyridin-6-yl)-5-(6-pyrrolidin-1-yl-3-azabicyclo[3.1.0]hexan-3-yl)pyrazine-2-carboxamide], the IC50 lay in the range of 500 to 1000 nM.

For `CCNC1C2CN(c3cnc(C(=O)Nc4cn5cc(C)nc5c(OC)n4)cn3)CC21` (stereo not drawn) [Example 34, 5-(6-(ethylamino)-3-azabicyclo[3.1.0]hexan-3-yl)-N-(8-methoxy-2-methylimidazo[1,2-a]pyrazin-6-yl)pyrazine-2-carboxamide], the IC50 fell in the range of 100 to 500 nM.

Turning to `Cc1cn2cc(NC(=O)c3cnc(N4CC5C[C@@]5(N)C4)cn3)cc(F)c2n1` (stereo partly drawn) [Example 35, 5-((1S)-1-amino-3-azabicyclo[3.1.0]hexan-3-yl)-N-(8-fluoro-2-methylimidazo[1,2-a]pyridin-6-yl)pyrazine-2-carboxamide], the IC50 is 500 to 1000 nM.

On to `Cc1cn2cc(NC(=O)c3cnc(N4CC5C[C@]5(N)C4)cn3)cc(F)c2n1` (stereo partly drawn) [Example 36, 5-((1R)-1-amino-3-azabicyclo[3.1.0]hexan-3-yl)-N-(8-fluoro-2-methylimidazo[1,2-a]pyridin-6-yl)pyrazine-2-carboxamide], for which the IC50 fell in the range of 100 to 500 nM.

For `Cc1cn2cc(NC(=O)c3cnc(N4CC5C(C4)C5NC4CC4)cn3)cc(F)c2n1` (stereo not drawn) [Example 37, 5-[6-(Cyclopropylamino)-3-azabicyclo[3.1.0]hexan-3-yl]-N-(8-fluoro-2-methyl-imidazo[1,2-a]pyridin-6-yl)pyrazine-2-carboxamide], the IC50 was in the range of 100 to 500 nM.

Regarding `Cc1cn2cc(NC(=O)c3cnc(N4CC[C@@H](NC5CC5)C4=O)cn3)cc(F)c2n1` [Example 43, (R)-5-(3-(cyclopropylamino)-2-oxopyrrolidin-1-yl)-N-(8-fluoro-2-methylimidazo[1,2-a]pyridin-6-yl)pyrazine-2-carboxamide], the IC50 lay within 100 to 500 nM.

For `Cc1cn2cc(NC(=O)c3cnc(N4CC[C@H](NC5CC5)C4=O)cn3)cc(F)c2n1` [Example 44, (S)-5-(3-(cyclopropylamino)-2-oxopyrrolidin-1-yl)-N-(8-fluoro-2-methylimidazo[1,2-a]pyridin-6-yl)pyrazine-2-carboxamide], the IC50 was 100 to 500 nM.

Take `Cc1cn2cc(NC(=O)c3cnc(N4CC(CN5CC(OCC(=O)NCCC6(CCN=[N+]=[N-])N=N6)C5)C4)cn3)cc(F)c2n1` [Example 45, 5-[3-[[3-[2-[2-[3-(2-azidoethyl)diazirin-3-yl]ethylamino]-2-oxo-ethoxy]azetidin-1-yl]methyl]azetidin-1-yl]-N-(8-fluoro-2-methyl-imidazo[1,2-a]pyridin-6-yl)pyrazine-2-carboxamide]: the IC50 fell in the range of 500 to 1000 nM.

In the case of `Cc1cn2cc(NC(=O)c3cnc(-n4cc(CNC5CC5)cn4)cn3)cc(F)c2n1` [Example 46, 5-(4-((Cyclopropylamino)methyl)-1H-pyrazol-1-yl)-N-(8-fluoro-2-methylimidazo[1,2-a]pyridin-6-yl)pyrazine-2-carboxamide], the IC50 lay in the range of 500 to 1000 nM.
